Ends that are not written are not given here.
How the values were obtained:
[1] = system: rat fetal long bone; experiment: Bone resorption inhibiting activity in rat fetal long bone culture (45Ca release); format: cell-based, Sprague-Dawley rat; conditions: 3 days
Method: Bone resorption inhibiting activity of 7-(1-hydroxycarbonylethyl)oxy-3-phenyl-4H-1-benzopyran-4-one (hereinafter referred to as "compound A") in rat fetal long bone culture
(§1) Determination of bone resorption was performed by the method of Raisz [J. Clin. Invest. 44, 103-116 (1965)]. Thus, a Sprague-Dawley rat on the 19th day of pregnancy was subcutaneously injected with 50μ Ci of ^45 Ca (isotope of calcium, CaCl2 solution), and was laparotomized on the following day. The embryos were aseptically taken out, the forelimbs (radius and ulna) were cut off from the trunk under a binocular dissecting microscope, and the connective tissue and cartilage were removed as much as possible to prepare bone samples. Each bone sample was preincubated at 37° C. for 24 hours in 0.6 ml of the medium containing 2 mg/ml of bovine serum albumin in BGJb medium (Fitton-Jackson modification) [GIBCO Laboratories, Grand Island, N.Y. 14072 U.S.A.]. Then, the sample was further incubated for 3 days in the same medium as above in which 10 μg/ml of compound A had been incorporated. Then, the radioactivity of ^45 Ca in the medium and that of ^45 Ca in the bone were measured and the percentage (%) of ^45 Ca released from the bone into the medium was calculated by the following formula. [formula]
As control, the bones of the embryos from the same litter were similarly incubated in the absence of compound A for 3 days.

[2] = system: ICR mice; conditions: mouse, in vivo
Method: (§2) Five-week-old ICR mice and 5-week-old Sprague-Dawley rats were used in groups of 10 males and 10 females, and suspensions of compound A or compound B in olive oil were administered orally [2,500, 5,000 and 10,000 mg/kg of each compound] or subcutaneously [1,250, 2,500 and 5,000 mg/kg]. The animals were kept under observation for 14 days.

[3] = system: Sprague-Dawley rats; conditions: rat, in vivo
Method: as §2

[4] = system: rat fetal long bone; experiment: Potentiating effect on the bone resorption inhibiting action of calcitonin, PTH-stimulated rat fetal long bone culture (45Ca release); format: cell-based, Sprague-Dawley rat; conditions: for potentiation of the inhibitory action of calcitonin on PTH-stimulated bone resorption (in words): calcitonin 3 mU/ml, compound 25 μg/ml
Method: as §1
Potentiating effect of 7-(1-hydroxycarbonylethyl)-oxy-3-(4-hydroxyphenyl)-4H-1-benzopyran-4-one (hereinafter referred to as "compound B") and 7-(1-ethoxycarbonylethyl)-oxy-3-phenyl-4H-1-benzopyran-4-one (hereinafter referred to as "compound C") on the bone resorption inhibiting action of calcitonin in rat fetal long bone culture
The bone samples prepared in the same manner as Test Example 1 were preincubated for 24 hours in the same medium as that prepared in Test Example 1, which contains bovine serum albumin in BGJb medium (Fitton-Jackson modification). Then, in the concomitant presence of PTH (parathyroid hormone, a bone resorption stimulant), calcitonin and compound B or compound C, the samples were further incubated for 3 days and the percentage of ^45 Ca released into the medium was calculated by means of the same formula as that in Test Example 1. […]

Molecule | suppression of bone resorption (in words) ([1]; 10 μg/ml) | 45Ca (%) released ([1]; compound 10 μg/ml, 37° C, mean ± standard deviation, six bones, control 23.6 ± 3.9, * p < 0.05 vs control) [%] | LD50 [2] | LD50 [3] | potentiation of the inhibitory action of calcitonin on PTH-stimulated bone resorption (in words) [4] | 45Ca (%) released ([4]; control II group: PTH + calcitonin 3 mU/ml, no compound, 3 days, PTH alone (control I) 39.7 ± 1.5) [%]
CC(Oc1ccc2c(=O)c(-c3ccccc3)coc2c1)C(=O)O (stereo not drawn) [compound A, 7-(1-hydroxycarbonylethyl)oxy-3-phenyl-4H-1-benzopyran-4-one] | suppressed bone resorption | 18.5 ± 2.2 | could not be calculated | could not be calculated |  | 
CC(Oc1ccc2c(=O)c(-c3ccc(O)cc3)coc2c1)C(=O)O (stereo not drawn) [compound B, 7-(1-hydroxycarbonylethyl)-oxy-3-(4-hydroxyphenyl)-4H-1-benzopyran-4-one] |  |  | could not be calculated | could not be calculated | potentiated the inhibitory action of calcitonin on PTH-stimulated bone resorption | 
CCOC(=O)C(C)Oc1ccc2c(=O)c(-c3ccccc3)coc2c1 (stereo not drawn) [compound C, 7-(1-ethoxycarbonylethyl)-oxy-3-phenyl-4H-1-benzopyran-4-one] |  |  |  |  | potentiated the inhibitory action of calcitonin on PTH-stimulated bone resorption | 
calcitonin: calcitonin, bone resorption inhibitor used with PTH in control II group (CGNLSTCMLGTYTQDFNKFHTFPQTAIGVGAP; ends and bridges not checked; cysteine pairing not given here; UniProt P01258 85-116, looked up) [reference compound] |  |  |  |  |  | 35.9 ± 4.9

Reference: US4644012A, “Treatment for osteoporosis” (Takeda Chemical Industries, Ltd., priority 1983, dated 1987)
